In patent US10266548B2, “Substituted benzylindazoles for use as Bub1 kinase inhibitors in the treatment of hyperproliferative diseases” (Bayer Intellectual Property GmbH, priority 2011, dated 2019) one finds IC50 data, which are given here for 30 compounds.

pIC50: −log10 of the molar value. Counter-ions that a name gives are not always drawn. Like-named read-outs stand apart in the source and are kept apart here.

In one assay the test system is HeLa cells. Nature of the assay: Proliferation assay (HeLa cell line). Format: cell-based. Conditions: read-out: Biological Assay 2: Proliferation assay (HeLa cell line) median IC50.
The target of assay [1] is catalytic domain of human Bub1 (amino acids 704-1085) (Homo sapiens (Human), UniProt O43683). Nature of the assay: Bub1 kinase assay (TR-FRET). Format: biochemical. Conditions: 10 μM ATP, 1 μM peptide substrate; read-out: Biological Assay 1: Bub1 kinase assay median IC50. The essentials: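 Phosphoserine product detected by TR-FRET (Eu-labeled anti-mouse IgG/anti-phosphoserine antibody to streptavidin-XL665) after 1 h at 22 °C. IC50 from 4-parameter logistic fit.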
Sequence of catalytic domain of human Bub1 (amino acids 704-1085) (O43683 704-1085): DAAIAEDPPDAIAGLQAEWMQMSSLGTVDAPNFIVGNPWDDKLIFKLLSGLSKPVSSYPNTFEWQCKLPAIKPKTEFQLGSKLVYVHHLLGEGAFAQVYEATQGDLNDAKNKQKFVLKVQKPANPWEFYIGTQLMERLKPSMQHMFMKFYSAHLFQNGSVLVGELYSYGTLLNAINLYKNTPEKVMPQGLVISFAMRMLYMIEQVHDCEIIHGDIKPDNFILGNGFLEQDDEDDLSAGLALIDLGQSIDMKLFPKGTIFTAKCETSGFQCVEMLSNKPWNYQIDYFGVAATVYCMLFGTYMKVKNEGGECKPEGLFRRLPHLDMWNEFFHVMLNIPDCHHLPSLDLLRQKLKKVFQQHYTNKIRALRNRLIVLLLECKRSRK

The mark [2] stands for this setting: Homo sapiens, 96 h, 4 days, crystal violet.

In the case of `CCOc1cc(F)c(Cn2nc(-c3nccc(N(C(=O)C4CCOCC4)c4ccncc4)n3)c3ccccc32)c(F)c1` [Example 16-3, N-{2-[1-(4-ethoxy-2,6-difluorobenzyl)-1H-indazol-3-yl]pyrimidin-4-yl}-N-(pyridin-4-yl)tetrahydro-2H-pyran-4-carboxamide], the pIC50 in the assay with HeLa cells (Homo sapiens, 96 h) was 5.39; in assay [1], 6.68.
In the case of `CCOc1cc(F)c(Cn2nc(-c3nccc(N(C(=O)COCCOC)c4ccncc4)n3)c3ccccc32)c(F)c1` [Example 16-4, N-{2-[1-(4-ethoxy-2,6-difluorobenzyl)-1H-indazol-3-yl]pyrimidin-4-yl}-2-(2-methoxyethoxy) N-(pyridin-4-yl)acetamide], the pIC50 in the assay on HeLa cells (setting [2]) was 5.57; in assay [1], 7.70.
Consider `CCOc1cc(F)c(Cn2nc(-c3nccc(N(CCO)c4ccncc4)n3)c3ccccc32)c(F)c1` [Example 17-1, 2-[{2-[1-(4-ethoxy-2,6-difluorobenzyl)-1H-indazol-3-yl]pyrimidin-4-yl}(pyridin-4-yl)amino]ethanol], for which the pIC50 with HeLa cells (setting [2]) was at most 5.00; in assay [1], 6.77.
Take `CCOc1cc(F)c(Cn2nc(-c3nccc(N(CC4(CO)COC4)c4ccncc4)n3)c3ccccc32)c(F)c1` [Example 17-2]: the pIC50 in the assay on HeLa cells (4 days, crystal violet) is at most 5.00; in assay [1], 5.62.
`COc1cnc(-c2nn(Cc3c(F)cc(Br)cc3OCC(F)(F)F)c3ccccc23)nc1Nc1ccncc1` [Example 18-1, 2-{1-[4-bromo-2-fluoro-6-(2,2,2-trifluoroethoxy)benzyl]-1H-indazol-3-yl}-5-methoxy-N-(pyridin-4-yl)pyrimidin-4-amine]: the results for the pIC50 (with HeLa cells (setting [2]); in assay [1]) were 5.85 and 7.80, respectively.
`COc1cnc(-c2nn(Cc3c(OCC(F)(F)F)cc(Br)cc3OCC(F)(F)F)c3ccccc23)nc1Nc1ccncc1` [Example 18-2]: the pIC50 in the assay with HeLa cells (4 days, crystal violet) was 5.46; in assay [1], 5.55.
On the same counts, the results for `CCOc1cc(F)c(Cn2nc(-c3ncc(OCC(=O)O)c(Nc4ccncc4)n3)c3ccccc32)c(F)c1` [Example 19-2] are at most 5.00 and 8.20.
In the case of `COc1cnc(-c2nn(Cc3c(Cl)ccc(C(N)=O)c3Cl)c3ccccc23)nc1Nc1ccncc1` [Example 20-2, 2,4-dichloro-3-({3-[5-methoxy-4-(pyridin-4-yla-mino)pyrimidin-2-yl]-1H-indazol-1-yl}methyl) benzamide], the pIC50 with HeLa cells (setting [2]) is 5.48; in assay [1], 7.40.
As to `COc1cnc(-c2nn(Cc3c(Cl)ccc(C(=O)N(C)C)c3Cl)c3ccccc23)nc1Nc1ccncc1` [Example 20-3, 2,4-dichloro-3-({3-[5-methoxy-4-(pyridin-4-yla-mino)pyrimidin-2-yl]-1H-indazol-1-yl}methyl)-N,N-dimethyl-benzamide], the pIC50 was 5.39 in the assay with HeLa cells (Homo sapiens, 96 h) and 5.92 in assay [1].
On to `COc1cnc(-c2nn(Cc3c(Cl)ccc(C(=O)NCCO)c3Cl)c3ccccc23)nc1Nc1ccncc1` [Example 20-4, 2,4-dichloro-N-(2-hydroxyethyl)-3-({3-[5-methoxy-4-(pyridin-4-yla-mino)pyrimidin-2-yl]-1H-indazol-1-yl}methyl) benzamide], for which the pIC50 is at most 5.00 with HeLa cells (setting [2]) and 6.12 in assay [1].
Regarding `COc1cnc(-c2nn(Cc3c(Cl)ccc(C(=O)N4CCOCC4)c3Cl)c3ccccc23)nc1Nc1ccncc1` [Example 20-5, [2,4-dichloro-3-({3-[5-methoxy-4-(pyridin-4-yla-mino)pyrimidin-2-yl]-1H-indazol-1-yl}methyl)phenyl] (morpholin-4-yl)methanone], the pIC50 was 5.23 in the assay on HeLa cells (setting [2]) and 5.06 in assay [1].
With `C#Cc1ccc(Cn2nc(-c3ncc(OC)c(Nc4ccncc4)n3)c3ccccc32)c(F)c1` [Example 21-1, 2-[1-(4-ethynyl-2-fluorobenzyl)-1H-indazol-3-yl]-5-methoxy-N-(pyridin-4-yl)pyrimidin-4-amine], the figures for the pIC50 (with HeLa cells (setting [2]); in assay [1]) were 5.42 and 7.55, respectively.
As to `COc1cnc(-c2nn(Cc3ccccc3F)c3ccccc23)nc1N(C)c1ccncc1` [Example 23-1, 2-[1-(2-fluorobenzyl)-1H-indazol-3-yl]-5-methoxy-N-methyl-N-(pyridin-4-yl)pyrimidin-4-amine], the pIC50 in the assay with HeLa cells (setting [2]) was at most 5.00; in assay [1], 5.85.
As to `COc1cnc(-c2nn(Cc3ccccc3F)c3ccccc23)nc1Nc1ccncc1C#N` [Example 24-1, 4-({2-[1-(2-fluorobenzyl)-1H-indazol-3-yl]-5-methoxypyrimidin-4-yl}amino)pyridine-3-carbonitrile], the pIC50 is at most 5.00 in the assay with HeLa cells (setting [2]) and 7.21 in assay [1].
In the case of `COc1cnc(-c2nn(Cc3ccccc3F)c3ccccc23)nc1Nc1ccncc1` [Example 24-3, 2-[1-(2-fluorobenzyl)-1H-indazol-3-yl]-5-methoxy-N-(pyridin-4-yl)pyrimidin-4-amine], the pIC50 was 5.03 in the assay on HeLa cells (Homo sapiens, 96 h) and 7.89 in assay [1].
Regarding `COc1ccc(Cn2nc(-c3ncc(OC)c(Nc4cc[nH]c(=O)c4)n3)c3ccccc32)cc1` [Example 24-7, 4-({5-methoxy-2-[1-(4-methoxybenzyl)-1H-indazol-3-yl]pyrimidin-4-yl}amino)pyridin-2(1H)-one], the pIC50 in the assay on HeLa cells (Homo sapiens, 96 h) is 5.00; in assay [1], 5.92.
With `CCOc1cc(F)c(Cn2nc(-c3ncc(OC)c(Nc4cc[nH]c(=O)c4)n3)c3ccccc32)c(F)c1` [Example 24-8, 4-({2-[1-(4-ethoxy-2,6-difluorobenzyl)-1H-indazol-3-yl]-5-methoxypyrimidin-4-yl}amino)pyridin-2(1H)-one], the pIC50 with HeLa cells (Homo sapiens, 96 h) is 5.00; in assay [1], 7.59.
Turning to `COc1cnc(-c2nn(Cc3ccccc3F)c3ccccc23)nc1Nc1ccncc1C(N)=O` [Example 25-1, 4-({2-[1-(2-fluorobenzyl)-1H-indazol-3-yl]-5-methoxypyrimidin-4-yl}amino)pyridine-3-carboxamide], the pIC50 in the assay with HeLa cells (setting [2]) is at most 5.00; in assay [1] it was 7.89.
Take `CCCc1ccc(Cn2nc(-c3ncc(OC)c(Nc4ccncc4C(N)=O)n3)c3ccccc32)cc1` [Example 25-2]: the pIC50 in the assay on HeLa cells (4 days, crystal violet) was at most 5.00; in assay [1], 8.27.
As to `CCOc1cc(F)c(Cn2nc(-c3ncc(OC)c(Nc4ccncc4C(N)=O)n3)c3ccccc32)c(F)c1` [Example 25-3, 4-({2-[1-(4-ethoxy-2,6-difluorobenzyl)-1H-indazol-3-yl]-5-methoxypyrimidin-4-yl}amino)pyridine-3-carboxamide], the pIC50 in the assay on HeLa cells (setting [2]) is 5.36; in assay [1] it was 8.06.
On to `COc1cnc(-c2nn(Cc3c(F)cc(O)cc3F)c3ccccc23)nc1Nc1ccncc1C(N)=O` [Example 25-4], for which the pIC50 with HeLa cells (4 days, crystal violet) is 5.00; in assay [1] it was 8.30.
On to `N#Cc1cnccc1Nc1nc(-c2nn(Cc3ccccc3F)c3ccccc23)ncc1O` [Example 26-1, 4-({2-[1-(2-fluorobenzyl)-1H-indazol-3-yl]-5-hydroxypyrimidin-4-yl}amino)pyridine-3-carbonitrile], for which the pIC50 in the assay on HeLa cells (setting [2]) was 5.04; in assay [1] it was 7.77.
On to `COc1ccc(Cn2nc(-c3ncc(OC)c(Nc4ccncc4C(F)(F)F)n3)c3ccccc32)cc1` [Example 27-1, 5-methoxy-2-[1-(4-methoxybenzyl)-1H-indazol-3-yl]-N-[3-(trifluoromethyl)pyridin-4-yl]pyrimidin-4-amine], for which the pIC50 was 5.41 in the assay with HeLa cells (Homo sapiens, 96 h) and 7.26 in assay [1].
With `CNC(=O)c1ccc(Cn2nc(-c3ncc(OC)c(Nc4ccncc4)n3)c3ccccc32)c(Cl)c1` [Example 29-1, formic acid-3-chloro-4-({3-[5-methoxy-4-(pyridin-4-ylamino)pyrimidin-2-yl]-1H-indazol-1-yl}methyl)-N-methylbenzamide (1:1)], the pIC50 was at most 5.00 in the assay on HeLa cells (setting [2]) and 7.96 in assay [1].
As for `CNC(=O)c1ccc(Cn2nc(-c3ncc(OC)c(Nc4ccncc4)n3)c3ccccc32)c(Cl)c1` [Example 29-2, 3-chloro-4-({3-[5-methoxy-4-(pyridin-4-ylamino)pyrimidin-2-yl]-1H-indazol-1-yl}methyl)-N-methylbenzamide], the pIC50 in the assay on HeLa cells (4 days, crystal violet) was at most 5.00; in assay [1], 8.05.
With `NC(=O)c1cnccc1Nc1nc(-c2nn(Cc3ccccc3F)c3ccccc23)ncc1O` [Example 30-1, 4-({2-[1-(2-fluorobenzyl)-1H-indazol-3-yl]-5-hydroxypyrimidin-4-yl}amino)pyridine-3-carboxamide], the pIC50 in the assay with HeLa cells (setting [2]) is at most 5.00; in assay [1] it was 7.77.
With `O=C(O)c1cnccc1Nc1nc(-c2nn(Cc3ccccc3F)c3ccccc23)ncc1O` [Example 30-2, 4-({2-[1-(2-fluorobenzyl)-1H-indazol-3-yl]-5-hydroxypyrimidin-4-yl}amino)pyridine-3-carboxylic acid], the pIC50 in the assay on HeLa cells (setting [2]) is at most 5.00; in assay [1] it was 7.70.
As to `CCOC(=O)c1cnccc1Nc1nc(-c2nn(Cc3ccccc3F)c3ccccc23)ncc1O` [Example 30-3, ethyl 4-({2-[1-(2-fluorobenzyl)-1H-indazol-3-yl]-5-hydroxypyrimidin-4-yl}amino)pyridine-3-carboxylate], the pIC50 in the assay with HeLa cells (setting [2]) was at most 5.00; in assay [1] it was 8.08.
Take `NC(=O)c1cnc(-c2nn(Cc3ccccc3F)c3ccccc23)nc1Nc1ccncc1` [Example 32-1, 2-[1-(2-fluorobenzyl)-1H-indazol-3-yl]-4-(pyridin-4-ylamino)pyrimidine-5-carboxamide]: the pIC50 with HeLa cells (Homo sapiens, 96 h) is at most 5.00; in assay [1], 6.92.
For `O=C(O)c1cnccc1Nc1nc(-c2nn(Cc3ccccc3F)c3ccccc23)ncc1OCCO` [Example 33-1, 4-({2-[1-(2-fluorobenzyl)-1H-indazol-3-yl]-5-(2-hydroxyethoxy)pyrimidin-4-yl}amino)pyridine-3-carboxylic acid hydrochloride (1:1)], the pIC50 in the assay with HeLa cells (Homo sapiens, 96 h) was at most 5.00; in assay [1], 7.96.
